# Patent US11834460B2, “Imide-based modulators of proteolysis and associated methods of use” (YALE UNIVERSITY, priority 2018, dated 2023)
# Where a SMILES comes first, the peptide text is derived from it. The star is where a group is joined. Cbz = O=C(OCc1ccccc1)*
# How the values were obtained:
# Format in all cases: cell-based
# BRD4 = biological target: T1, BRD4 (Homo sapiens, UniProt O60885); assay: Western blot analysis of BRD4 in BL cell lines; details: overnight; for effect of proteasome inhibitor on A825-induced BRD4 degradation: inhibitor 5 μM with A825 10 nM or 100 nM, NAMALWA cells
# T1 construct: endogenous in cells; host or cells: NAMALWA, Ramos, CA-46, DAUDI
# Protocol: (§1) Cultured cells were collected in lysis buffer containing 40 mM HEPES (pH 7.4), 140 mM NaCl, 2.5 mM EDTA, 1% NP-40, 0.1% SDS and protease inhibitor cocktail. After 10 minutes of centrifugation (14000 rpm), supernatant was collected for protein concentration determination by BCA method and subjected for immunoblotting by standard protocol. Western blot results were visualized using Bio-Rad Clarity ECL Western Blotting Substrate on Bio-Rad ChemiDoc™ MP imaging system.
# A separate set of cells were treated in the same manner, except that DMSO was used in place of the inhibitor. […] Following treatment, cell lysates were collected and analyzed by immunoblot for BRD4 and Actin.
# Specifically, NAMALWA and Ramos cells were treated with 300 nM of each inhibitor for 0 hr, 0.5 hr, 1.0 hr, 2.0 hr, 4.0 hr, 7.0 hr, 24 hr, and 48.0 hr. Following treatment, cell lysates were collected and analyzed by immunoblot for BRD4 and Actin.
# (§2) Following treatment, cell lysates were collected and analyzed by immunoblot for BRD4 and Actin.
# as §2, §2, §2
# (§3) Cells were re-seeded in fresh medium and incubated without any compound for 0 hr, 2.0 hr, 4.0 hr, 6.0 hr, and 24.0 hr. In a parallel control experiment, cells were treated in the same manner, except DMSO was used in place of inhibitor. Lysates were collected and analyzed by immunoblot for BRD4, c-Myc, and Actin.
# androgen receptor (AR) = biological target: T2, androgen receptor (AR) (Homo sapiens, UniProt P10275); assay: AR ELISA protocol, degradation in VCaP cells; design: Dmax: dose or concentration left out as unconfirmed; details: 16 h
# T2 construct: detects endogenous levels of total androgen receptor protein; endogenous in cells; host or cells: VCaP
# T2 sequence (P10275 1-920): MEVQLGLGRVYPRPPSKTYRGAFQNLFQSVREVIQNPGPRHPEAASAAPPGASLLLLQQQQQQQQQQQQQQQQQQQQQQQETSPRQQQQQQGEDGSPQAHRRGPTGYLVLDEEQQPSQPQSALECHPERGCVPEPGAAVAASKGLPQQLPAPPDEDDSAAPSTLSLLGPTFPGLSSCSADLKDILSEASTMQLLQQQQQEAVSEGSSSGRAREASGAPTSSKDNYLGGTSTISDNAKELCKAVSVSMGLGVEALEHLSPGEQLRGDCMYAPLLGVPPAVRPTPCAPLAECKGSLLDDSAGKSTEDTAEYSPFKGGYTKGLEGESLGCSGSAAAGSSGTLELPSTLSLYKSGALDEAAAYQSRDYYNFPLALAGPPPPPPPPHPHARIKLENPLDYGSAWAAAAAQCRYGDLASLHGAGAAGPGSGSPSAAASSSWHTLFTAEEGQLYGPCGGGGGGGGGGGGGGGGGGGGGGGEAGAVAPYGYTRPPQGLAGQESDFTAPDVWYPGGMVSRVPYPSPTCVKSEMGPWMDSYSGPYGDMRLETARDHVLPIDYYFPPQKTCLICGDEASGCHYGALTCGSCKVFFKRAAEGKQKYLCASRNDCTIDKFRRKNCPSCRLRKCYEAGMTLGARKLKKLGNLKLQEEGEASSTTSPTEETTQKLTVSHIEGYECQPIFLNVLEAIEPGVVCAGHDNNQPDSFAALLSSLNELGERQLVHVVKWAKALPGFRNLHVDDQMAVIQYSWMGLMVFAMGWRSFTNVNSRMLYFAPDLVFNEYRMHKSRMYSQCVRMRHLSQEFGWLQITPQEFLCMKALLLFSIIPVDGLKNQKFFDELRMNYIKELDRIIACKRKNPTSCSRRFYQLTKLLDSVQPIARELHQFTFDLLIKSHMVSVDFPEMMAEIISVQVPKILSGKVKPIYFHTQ
# Protocol: In each bioassay, cells were treated with varying amounts of compounds encompassed by the present disclosure, as shown in Table 1. The degradation of the following proteins were evaluated in this study: TANK-binding kinase 1 (TBK1), estrogen receptor α (ERα), bromodomain-containing protein 4 (BRD4), androgen receptor (AR), and c-Myc.
# VCaP cells were purchased from ATCC and cultured in Dulbecco's Modified Eagle's Medium (ATCC), supplemented with 10% FBS (ATCC) and Penicillin/Streptomycin (Life Technologies). DMSO control and compound treatments (0.0001 μM-1 μM) were performed in 96-well plates for 16 h. Cells were harvested, and lysed with Cell Lysis Buffer (Catalog #9803) (20 mM Tris-HCL (pH 7.5), 150 mM NaCl, 1 mM Na2EDTA, 1 mM EGTA, 1% Triton, 2.5 mM sodium pyrophosphate, 1 mM B-glycerophosphate, 1 mM Na3VO4, 1 ug/ml leupeptin. Lysates were clarified at 16,000 g for 10 minutes, and loaded into the PathScan AR ELISA (Cell Signaling Catalog #12850). The PathScan® Total Androgen Receptor Sandwich ELISA Kit is a solid phase sandwich enzyme-linked immunosorbent assay (ELISA) that detects endogenous levels of total androgen receptor protein. An Androgen Receptor Rabbit mAb has been coated onto the microwells. After incubation with cell lysates, androgen receptor protein is captured by the coated antibody. Following extensive washing, an Androgen Receptor Mouse Detection mAb is added to detect the captured androgen receptor protein. Anti-mouse IgG, HRP-linked Antibody is then used to recognize the bound detection antibody. HRP substrate, TMB, is added to develop color. The magnitude of absorbance for the developed color is proportional to the quantity of total androgen receptor protein. Antibodies in kit are custom formulations specific to kit.
# c-Myc = assay: Western blot analysis of c-Myc in BL cell lines; details: NAMALWA cells; for c-Myc protein level (immunoblot): overnight
# Protocol: as §1
# A separate set of cells were treated in the same manner, except that DMSO was used in place of the inhibitor. Following treatment, cell lysates were collected and analyzed by immunoblot for c-Myc and Actin.
# Cells were re-seeded and incubated without inhibitor for 0 hr, 0.5 hr, 1.0 hr, 2.0 hr, 3.0 hr, 4.0 hr, and 6.0 hr. Cell lysates were then collected at the various time points and analyzed by immunoblot for c-Myc and Actin. In a parallel control experiment, NAMALWA cells were treated in the same manner, except DMSO was used in place of JQ1.
# After treatment, the cells were either lysed (to evaluate the suppression of c-Myc by the inhibitors) or washed to remove the inhibitor, re-seeded, and incubated without inhibitor for 4.0 hours (to evaluate the reversibility of c-Myc suppression). Cell lysates were collected and analyzed by immunoblot for c-Myc and Actin.
# Following treatment, cell lysates were collected and analyzed by immunoblot for BRD4, c-Myc and Actin.
# as §3
# PARP = PARP cleavage immunoblot in BL cells; details: 48 hours; A825 0.1 uM, JQ1 and OTX15 up to 10.0 μM; Ramos cells
# Protocol: as §1
# Lysates were collected and analyzed by immunoblot for PARP cleavage with actin as loading control.
# [1] = test system: BL cell lines (NAMALWA, Ramos, CA-46, Daudi); assay: Proliferation assay (CellTiter-Glo) in BL cell lines; details: pomalidomide alone up to 10 μM; 72 hours
# Protocol: To assess the effect of the inhibitors on proliferation, cells (50,000/100 μl) were seeded in 96-well tissue culture plates followed by addition of compound at the indicated concentration. After 72 hours, 100 μL per well of reconstituted CellTiter-Glo (CTG) reagent (#G7572 from Promega) was added and read on Cytation 3 imaging reader from BioTek. Relative cell growth was determined by comparing assay readings of treated cells with control DMSO treated cells.
# Specifically, NAMALWA, Ramos, CA-46, and Daudi cell lines were seeded at 50,000 cells/100 μl in 96-well plates. […] Following treatment, the relative proliferation of the samples was determined by CTG assay 72 hours following treatment.
# Cells were re-seeded in fresh medium and incubated without any compound for 0 hr, 24.0 hr, and 48.0 hr. In a parallel control experiment, cells were treated in the same manner, except DMSO was used in place of inhibitor. Following treatment, the relative proliferation of the samples was determined by CTG assay.
# In a parallel control experiment, cells were treated in the same manner, except DMSO was used in place of inhibitor. Following treatment, the relative proliferation of the samples was determined by CTG assay.
# In a parallel experiment, cells were treated in the same manner, except DMSO was used in place of pomalidomide.
structure (smiles),measurement,setting,value
CC(C)C[C@H](NC(=O)[C@H](CCc1ccccc1)NC(=O)CN1CCOCC1)C(=O)N[C@@H](Cc1ccccc1)C(=O)N[C@@H](CC(C)C)C(=O)[C@@]1(C)CO1 [Carfizomib],effect of proteasome inhibitor on A825-induced BRD4 degradation,BRD4,completely prevented BRD4 degradation
"CC1(C)C(=O)N(c2ccc(C#N)c(C(F)(F)F)c2)C(=S)N1c1ccc(OCCOCCNc2cccc3c2C(=O)N(C2CCC(=O)NC2=O)C3=O)cc1 (stereo not drawn) [Compound 7, 4-(3-(4-(2-(2-((2-(2,6-dioxopiperidin-3-yl)-1,3-dioxoisoindolin-4-yl)amino)ethoxy)ethoxy)phenyl)-4,4-dimethyl-5-oxo-2-thioxoimidazolidin-1-yl)-2-(trifluoromethyl) benzonitrile]",Dmax at 1 µM,androgen receptor (AR),10 to 30%
"CC1(C)C(=O)N(c2ccc(C#N)c(C(F)(F)F)c2)C(=S)N1c1ccc(OCCOCCOCCNc2cccc3c2C(=O)N(C2CCC(=O)NC2=O)C3=O)cc1 (stereo not drawn) [Compound 8, 4-(3-(4-(2-(2-(2-((2-(2,6-dioxopiperidin-3-yl)-1,3-dioxoisoindolin-4-yl)amino)ethoxy)ethoxy)ethoxy)phenyl)-4,4-dimethyl-5-oxo-2-thioxoimidazolidin-1-yl)-2-(trifluoromethyl) benzonitrile]",Dmax at 1 µM,androgen receptor (AR),10 to 30%
"CC1(C)C(=O)N(c2ccc(C#N)c(C(F)(F)F)c2)C(=S)N1c1ccc(OCCCOCCOCCNc2cccc3c2C(=O)N(C2CCC(=O)NC2=O)C3=O)cc1 (stereo not drawn) [Compound 9, 4-(3-(4-(3-(2-(2-((2-(2,6-dioxopiperidin-3-yl)-1,3-dioxoisoindolin-4-yl)amino)ethoxy)ethoxy)propoxy)phenyl)-4,4-dimethyl-5-oxo-2-thioxoimidazolidin-1-yl)-2-(trifluoromethyl) benzonitrile]",Dmax at 1 µM,androgen receptor (AR),10 to 30%
CC1(C)C(=O)N(c2ccc(C#N)c(C(F)(F)F)c2)C(=S)N1c1ccc(OCCCCOCCOCCOCCNc2cccc3c2C(=O)N(C2CCC(=O)NC2=O)C3=O)cc1 (stereo not drawn) [Compound 10],Dmax,androgen receptor (AR),31 to 50%
CC1(C)[C@H](NC(=O)c2ccc(OCCCCCOCCCNc3cccc4c3C(=O)N(C3CCC(=O)NC3=O)C4=O)cc2)C(C)(C)[C@H]1Oc1ccc(C#N)c(Cl)c1 (stereo partly drawn) [Compound 11],Dmax at 1 µM,androgen receptor (AR),> 50%
"CC1(C)C(=O)N(c2ccc(C#N)c(C(F)(F)F)c2)C(=S)N1c1ccc(OCCCOCCOCCOCCNc2cccc3c2C(=O)N(C2(C)CCC(=O)NC2=O)C3=O)cc1 (stereo not drawn) [Compound 12, 4-(4,4-dimethyl-3-(4-((1-(2-(3-methyl-2,6-dioxopiperidin-3-yl)-1,3-dioxo-2,3-dihydro-1H-isoindol-4-yl)-4,7,10-trioxa-1-azatridecan-13-yl)oxy)phenyl)-5-oxo-2-sulfanylidene-imidazolidin-1-yl)-2-(trifluoromethyl) benzonitrile]",Dmax,androgen receptor (AR),10 to 30%
"CC1(C)C(=O)N(c2ccc(C#N)c(C(F)(F)F)c2)C(=S)N1c1ccc(-c2ccc(OCCCCCNc3cccc4c3C(=O)N(C3CCC(=O)NC3=O)C4=O)cc2)cc1 (stereo not drawn) [Compound 13, 4-(3-(4-(4-((5-((2-(2,6-dioxopiperidin-3-yl)-1,3-dioxo-2,3-dihydro-1H-isoindol-4-yl)amino)pentyl)oxy)phenyl)phenyl)-4,4-dimethyl-5-oxo-2-sulfanylidene-imidazolidin-1-yl)-2-(trifluoromethyl) benzonitrile]",Dmax at 1 µM,androgen receptor (AR),> 50%
Cc1sc2c(c1C)C(c1ccc(Cl)cc1)=N[C@@H](CC(=O)OC(C)(C)C)c1nnc(C)n1-2 [JQ1],c-Myc protein level (immunoblot),c-Myc; 100 nM to 1000 nM,significant suppression
same,time for c-Myc protein to return to control level after inhibitor removal,"c-Myc; 1000 nM 24 h, washout",≤ 3.0 h
same,c-Myc protein level (immunoblot),c-Myc; up to 3000 nM,neither JQ1 nor OTX-15 was able to completely suppress c-Myc expression
same,apoptosis by PARP cleavage,PARP,significantly higher dose
CC(C)C[C@@H](C=O)NC(=O)[C@H](CC(C)C)NC(=O)[C@H](CC(C)C)NC(=O)OCc1ccccc1 [MG132] (Cbz-Leu-Leu-Leu-aldehyde),effect of proteasome inhibitor on A825-induced BRD4 degradation,BRD4,completely prevented BRD4 degradation
Cc1sc2c(c1C)C(c1ccc(Cl)cc1)=N[C@@H](CC(=O)Nc1ccc(O)cc1)c1nnc(C)n1-2 [OTX-15],c-Myc protein level (immunoblot),c-Myc; 100 nM to 1000 nM,significant suppression
same,c-Myc protein level (immunoblot),c-Myc; up to 3000 nM,neither JQ1 nor OTX-15 was able to completely suppress c-Myc expression
same,apoptosis by PARP cleavage,PARP,significantly higher dose
"Nc1cccc2c1C(=O)N(C1CCC(=O)NC1=O)C2=O (stereo not drawn) [Pomalidomide, pomalidomide, reference compound]",effect on BL cell proliferation,[1],did not result in a significant effect on the proliferation
same,BRD4 protein level (immunoblot),"BRD4; pomalidomide 10 μM alone, NAMALWA and Ramos cells",not affected
